The source made the active and inactive calls.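 The calls were made as follows: active = maximum inhibition above 50% at any tested concentration, with a dose response curve fitted; inactive = no inhibition at any concentration or no dose response curve.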
These compounds were tested against TRPC4 (transient receptor potential cation channel C4), mouse (assay: blockers of mouse TRPC4 cation channel – cell-based, concentration-response, SAR follow-up (AID 652179)). Details: HEK293 TRPC4/mu-opioid cells, Fluo-4 calcium fluorescence ratio.

Compound | IC50 [µM]
C[C@H]1CCCN1c1ccc2ccccc2n1 | 14.9
Cc1cc(N2CCCCC2)nc2ccccc12 | 1.53
c1ccc2nc(N3CCCCC3)ccc2c1 | 4.61
Cc1cc(N2CCC(F)CC2)nc2ccccc12 | 10.2
Cc1cc(N2CCC(F)(F)CC2)nc2ccccc12 | 10.6
Cc1cc(N2CCCC(F)C2)nc2ccccc12 (stereo unspecified) | 12.6

Same assay, conditions: HEK293 TRPC4/mu-opioid cells, Fluo-4 calcium fluorescence ratio; at 20 µM (top of the series)

Compound | fluorescence ratio, lower = inhibition
Cc1cc(N2CCC(O)CC2)nc2ccccc12 | inactive
FC1(F)CCN(c2ccc3ccccc3n2)CC1 | inactive
Cc1cc(-n2ccnc2)nc2ccccc12 | inactive
FC1CCCN(c2ccc3ccccc3n2)C1 (stereo unspecified) | inactive
OC1CCN(c2ccc3ccccc3n2)C1 (stereo unspecified) | inactive
OC1CCCN(c2ccc3ccccc3n2)C1 (stereo unspecified) | inactive
Cc1cc(N(C)C)nc2ccccc12 | inactive
Cc1cc(-n2cccn2)nc2ccccc12 | inactive
OC1CCN(c2ccc3ccccc3n2)CC1 | inactive
c1ccc2nc(N3CCCC3)ccc2c1 | inactive
Cc1cc(N2CCC(O)C2)nc2ccccc12 (stereo unspecified) | inactive
FC1CCN(c2ccc3ccccc3n2)CC1 | inactive
O=C1CCN(c2ccc3ccccc3n2)CC1 | inactive
Cc1cc(N2CCC(=O)CC2)nc2ccccc12 | inactive
Cc1cc(-n2cccc2)nc2ccccc12 | inactive

Source: PubChem BioAssay AID652179 (Johns Hopkins Ion Channel Center, 2013)
